# Reference: patent publication US20080312435A1, “Imine Compound” (TAISHO PHARMACEUTICAL CO., LTD., priority 2004, published 2008)
# Biological target: T1, human CB2 receptor (Homo sapiens, UniProt P34972)
# T1 construct: expressed in transfected cells
# Assay: Human CB2 receptor binding inhibition test ([3H]CP-55,940, CHO membrane fractions)
# Details: [3H]CP-55,940, membrane fractions of CHO cells stably expressing human CB2 receptor, 25° C., 2 hours; read-out: CB2 IC50 (Inhibition of binding to human CB2 receptor)
# Summary of the method: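 Membranes from CHO-DHFR(−) cells stably expressing human CB2 used for [3H]CP-55,940 binding; filter-bound radioactivity counted by scintillation after washes with 0.1% BSA buffer. Nonspecific binding defined with 2.0 μM CP-55,940; IC50 for inhibition of specific binding.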
# T1 sequence (P34972 whole entry): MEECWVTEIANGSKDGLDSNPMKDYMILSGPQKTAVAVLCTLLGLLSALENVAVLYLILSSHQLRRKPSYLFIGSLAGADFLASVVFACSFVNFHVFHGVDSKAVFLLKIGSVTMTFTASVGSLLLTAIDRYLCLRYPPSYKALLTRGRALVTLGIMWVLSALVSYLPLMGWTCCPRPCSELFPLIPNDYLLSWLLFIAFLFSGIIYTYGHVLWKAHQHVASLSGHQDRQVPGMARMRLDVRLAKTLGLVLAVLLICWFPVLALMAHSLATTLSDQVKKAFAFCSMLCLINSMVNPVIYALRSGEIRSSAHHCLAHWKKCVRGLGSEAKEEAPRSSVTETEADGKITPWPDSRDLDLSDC
row,Structure (SMILES),IC50 [nM]
1,CC(C)(C)c1c/c(=N\C(=O)c2cccc(C(F)(F)F)c2F)n(CC2CC2)s1 [compound 56],0.8
2,COCCn1c(C)c(C)s/c1=N\C(=O)c1cccc(C(F)(F)F)c1F [compound 104],1.7
3,CCOCCn1c(C)c(C)s/c1=N\C(=O)c1cccc(C(F)(F)F)c1F [compound 107],0.5
4,CCOCCn1c(C)c(C(C)C)s/c1=N\C(=O)c1cccc(C(F)(F)F)c1F [compound 115],0.5
5,Cc1ccccc1C(=O)/N=c1\sc(C(C)(C)C)c(C)n1CC1CC1 [compound 180],1
6,CCc1ccccc1C(=O)/N=c1\sc(C(C)(C)C)c(C)n1CC1CC1 [compound 181],0.8
7,Cc1c(C(C)(C)C)s/c(=N\C(=O)c2ccccc2C(C)C)n1CC1CC1 [compound 182],0.3
8,Cc1c(C(C)(C)C)s/c(=N\C(=O)c2ccccc2C(F)(F)F)n1CC1CC1 [compound 183],0.5
9,Cc1c(C(C)(C)C)s/c(=N\C(=O)c2ccccc2Cl)n1CC1CC1 [compound 186],1.7
10,Cc1c(C(C)(C)C)s/c(=N\C(=O)c2ccccc2Br)n1CC1CC1 [compound 189],1.5
11,Cc1c(C(C)(C)C)s/c(=N\C(=O)c2ccccc2I)n1CC1CC1 [compound 191],0.7
12,Cc1c(C(C)(C)C)s/c(=N\C(=O)c2ccccc2N2CCOCC2)n1CC1CC1 [compound 206],5.7
13,Cc1cccc(C(=O)/N=c2\sc(C(C)(C)C)c(C)n2CC2CC2)c1C [compound 215],1.1
14,Cc1c(C(C)(C)C)s/c(=N\C(=O)c2c(F)cccc2F)n1CC1CC1 [compound 223],2
15,Cc1c(C(C)(C)C)s/c(=N\C(=O)c2cc(F)ccc2Br)n1CC1CC1 [compound 228],0.5
16,Cc1c(C(C)(C)C)s/c(=N\C(=O)c2ccc(F)cc2Br)n1CC1CC1 [compound 229],1
17,Cc1c(C(C)(C)C)s/c(=N\C(=O)c2cc(Cl)ccc2Cl)n1CC1CC1 [compound 232],0.5
18,COc1cccc(C(=O)/N=c2\sc(C(C)(C)C)c(C)n2CC2CC2)c1OC [compound 235],3.4
19,COc1ccc(C(=O)/N=c2\sc(C(C)(C)C)c(C)n2CC2CC2)c(OC)c1 [compound 236],2
20,CCOc1ccc(C(=O)/N=c2\sc(C(C)(C)C)c(C)n2CC2CC2)c(OCC)c1 [compound 237],13.1
21,Cc1c(F)cccc1C(=O)/N=c1\sc(C(C)(C)C)c(C)n1CC1CC1 [compound 240],3.4
22,Cc1c(Cl)cccc1C(=O)/N=c1\sc(C(C)(C)C)c(C)n1CC1CC1 [compound 243],0.4
23,Cc1c(Br)cccc1C(=O)/N=c1\sc(C(C)(C)C)c(C)n1CC1CC1 [compound 245],0.8
24,Cc1ccc(C(=O)/N=c2\sc(C(C)(C)C)c(C)n2CC2CC2)c(Br)c1 [compound 246],0.8
25,Cc1c(C(C)(C)C)s/c(=N\C(=O)c2c(F)cccc2C(F)(F)F)n1CC1CC1 [compound 256],1.1
26,Cc1c(C(C)(C)C)s/c(=N\C(=O)c2cccc(C(F)(F)F)c2Cl)n1CC1CC1 [compound 258],0.6
27,Cc1ncccc1C(=O)/N=c1/sc(C(C)(C)C)c(C)n1CC1CC1 [compound 295],12.3
28,Cc1nc(F)ccc1C(=O)/N=c1\sc(C(C)(C)C)c(C)n1CC1CC1 [compound 316],5.3

# Biological target: T2, human CB1 receptor (Homo sapiens, UniProt P21554)
# T2 construct: expressed in transfected cells
# T2 sequence (P21554 whole entry): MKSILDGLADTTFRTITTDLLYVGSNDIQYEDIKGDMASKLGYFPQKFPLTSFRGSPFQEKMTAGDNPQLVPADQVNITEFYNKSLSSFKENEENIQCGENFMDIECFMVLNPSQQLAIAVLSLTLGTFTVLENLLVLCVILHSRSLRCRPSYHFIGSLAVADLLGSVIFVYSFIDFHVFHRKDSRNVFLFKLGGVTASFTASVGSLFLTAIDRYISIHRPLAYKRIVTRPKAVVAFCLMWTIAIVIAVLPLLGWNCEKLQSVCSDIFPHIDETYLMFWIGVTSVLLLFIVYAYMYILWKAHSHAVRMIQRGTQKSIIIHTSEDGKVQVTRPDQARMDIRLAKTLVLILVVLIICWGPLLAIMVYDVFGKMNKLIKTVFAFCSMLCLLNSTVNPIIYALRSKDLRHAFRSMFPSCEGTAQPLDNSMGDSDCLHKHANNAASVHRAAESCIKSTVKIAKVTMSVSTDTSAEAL
# Assay: Human CB1 receptor binding inhibition test
# Details: CHO-DHFR(−) cells stably expressing human CB1 receptor, same manner as Experimental Example 1
# Experimental: Human CB1 Receptor Binding Inhibition Test
# The CHO-DHFR(−) cells capable of stably expressing a CB1 receptor were prepared in the same manner as in Experimental Example 1. The binding test to the human CB1 receptor was performed to obtain 50% inhibitory concentration (IC50 value) of a test compound.
row,Structure (SMILES),IC50 [nM]
1,CC(C)(C)c1c/c(=N\C(=O)c2cccc(C(F)(F)F)c2F)n(CC2CC2)s1 [compound 56],294
2,COCCn1c(C)c(C)s/c1=N\C(=O)c1cccc(C(F)(F)F)c1F [compound 104],327
3,CCOCCn1c(C)c(C)s/c1=N\C(=O)c1cccc(C(F)(F)F)c1F [compound 107],18
4,CCOCCn1c(C)c(C(C)C)s/c1=N\C(=O)c1cccc(C(F)(F)F)c1F [compound 115],25
5,Cc1ccccc1C(=O)/N=c1\sc(C(C)(C)C)c(C)n1CC1CC1 [compound 180],395
6,CCc1ccccc1C(=O)/N=c1\sc(C(C)(C)C)c(C)n1CC1CC1 [compound 181],115
7,Cc1c(C(C)(C)C)s/c(=N\C(=O)c2ccccc2C(C)C)n1CC1CC1 [compound 182],22
8,Cc1c(C(C)(C)C)s/c(=N\C(=O)c2ccccc2C(F)(F)F)n1CC1CC1 [compound 183],138
9,Cc1c(C(C)(C)C)s/c(=N\C(=O)c2ccccc2Cl)n1CC1CC1 [compound 186],271
10,Cc1c(C(C)(C)C)s/c(=N\C(=O)c2ccccc2Br)n1CC1CC1 [compound 189],212
11,Cc1c(C(C)(C)C)s/c(=N\C(=O)c2ccccc2I)n1CC1CC1 [compound 191],193
12,Cc1c(C(C)(C)C)s/c(=N\C(=O)c2ccccc2N2CCOCC2)n1CC1CC1 [compound 206],460
13,Cc1cccc(C(=O)/N=c2\sc(C(C)(C)C)c(C)n2CC2CC2)c1C [compound 215],61
14,Cc1c(C(C)(C)C)s/c(=N\C(=O)c2c(F)cccc2F)n1CC1CC1 [compound 223],168
15,Cc1c(C(C)(C)C)s/c(=N\C(=O)c2cc(F)ccc2Br)n1CC1CC1 [compound 228],228
16,Cc1c(C(C)(C)C)s/c(=N\C(=O)c2ccc(F)cc2Br)n1CC1CC1 [compound 229],263
17,Cc1c(C(C)(C)C)s/c(=N\C(=O)c2cc(Cl)ccc2Cl)n1CC1CC1 [compound 232],211
18,COc1cccc(C(=O)/N=c2\sc(C(C)(C)C)c(C)n2CC2CC2)c1OC [compound 235],315
19,COc1ccc(C(=O)/N=c2\sc(C(C)(C)C)c(C)n2CC2CC2)c(OC)c1 [compound 236],215
20,CCOc1ccc(C(=O)/N=c2\sc(C(C)(C)C)c(C)n2CC2CC2)c(OCC)c1 [compound 237],200
21,Cc1c(F)cccc1C(=O)/N=c1\sc(C(C)(C)C)c(C)n1CC1CC1 [compound 240],168
22,Cc1c(Cl)cccc1C(=O)/N=c1\sc(C(C)(C)C)c(C)n1CC1CC1 [compound 243],73
23,Cc1c(Br)cccc1C(=O)/N=c1\sc(C(C)(C)C)c(C)n1CC1CC1 [compound 245],32
24,Cc1ccc(C(=O)/N=c2\sc(C(C)(C)C)c(C)n2CC2CC2)c(Br)c1 [compound 246],319
25,Cc1c(C(C)(C)C)s/c(=N\C(=O)c2c(F)cccc2C(F)(F)F)n1CC1CC1 [compound 256],102
26,Cc1c(C(C)(C)C)s/c(=N\C(=O)c2cccc(C(F)(F)F)c2Cl)n1CC1CC1 [compound 258],19
27,Cc1ncccc1C(=O)/N=c1/sc(C(C)(C)C)c(C)n1CC1CC1 [compound 295],497

# Tested on: not given
# Assay: not given
# Details: not given
row,Structure (SMILES),melting point [°C]
1,CC(C)(C)c1c/c(=N\C(=O)c2cccc(C(F)(F)F)c2F)n(CC2CC2)s1 [compound 56],85 to 87
2,COCCn1c(C)c(C)s/c1=N\C(=O)c1cccc(C(F)(F)F)c1F [compound 104],182 to 183
3,CCOCCn1c(C)c(C)s/c1=N\C(=O)c1cccc(C(F)(F)F)c1F [compound 107],147 to 148
4,CCOCCn1c(C)c(C(C)C)s/c1=N\C(=O)c1cccc(C(F)(F)F)c1F [compound 115],96 to 97
5,CCc1ccccc1C(=O)/N=c1\sc(C(C)(C)C)c(C)n1CC1CC1 [compound 181],120 to 122
6,Cc1c(C(C)(C)C)s/c(=N\C(=O)c2ccccc2C(C)C)n1CC1CC1 [compound 182],168 to 169
7,Cc1c(C(C)(C)C)s/c(=N\C(=O)c2ccccc2C(F)(F)F)n1CC1CC1 [compound 183],90 to 91
8,Cc1cccc(C(=O)/N=c2\sc(C(C)(C)C)c(C)n2CC2CC2)c1C [compound 215],97 to 98
9,Cc1c(C(C)(C)C)s/c(=N\C(=O)c2c(F)cccc2F)n1CC1CC1 [compound 223],123 to 124
10,Cc1c(C(C)(C)C)s/c(=N\C(=O)c2cc(F)ccc2Br)n1CC1CC1 [compound 228],92 to 94
11,Cc1c(C(C)(C)C)s/c(=N\C(=O)c2ccc(F)cc2Br)n1CC1CC1 [compound 229],126 to 128
12,Cc1c(C(C)(C)C)s/c(=N\C(=O)c2cc(Cl)ccc2Cl)n1CC1CC1 [compound 232],129 to 131
13,COc1cccc(C(=O)/N=c2\sc(C(C)(C)C)c(C)n2CC2CC2)c1OC [compound 235],93 to 94
14,CCOc1ccc(C(=O)/N=c2\sc(C(C)(C)C)c(C)n2CC2CC2)c(OCC)c1 [compound 237],116 to 118
15,Cc1c(F)cccc1C(=O)/N=c1\sc(C(C)(C)C)c(C)n1CC1CC1 [compound 240],94 to 96
16,Cc1c(Cl)cccc1C(=O)/N=c1\sc(C(C)(C)C)c(C)n1CC1CC1 [compound 243],88 to 90
17,Cc1c(Br)cccc1C(=O)/N=c1\sc(C(C)(C)C)c(C)n1CC1CC1 [compound 245],89 to 90
18,Cc1ccc(C(=O)/N=c2\sc(C(C)(C)C)c(C)n2CC2CC2)c(Br)c1 [compound 246],82 to 84
19,Cc1c(C(C)(C)C)s/c(=N\C(=O)c2c(F)cccc2C(F)(F)F)n1CC1CC1 [compound 256],128 to 130
20,Cc1c(C(C)(C)C)s/c(=N\C(=O)c2cccc(C(F)(F)F)c2Cl)n1CC1CC1 [compound 258],93 to 94
21,Cc1nc(F)ccc1C(=O)/N=c1\sc(C(C)(C)C)c(C)n1CC1CC1 [compound 316],67 to 69
